# Test results taken from patent US20120190707A1, “SELECTIVE INHIBITORS OF AKT AND METHODS OF USING SAME” (priority 2008, published 2012).
# Read-outs that look alike come from different tables or passages of the source.
# Legend:
# [1] = molecular target: CHK2 (Homo sapiens, UniProt O96017); test: Invitrogen SelectScreen Kinase Profiling Service; assay type: biochemical
# Procedure: In addition to its inhibition of AKT, BI-69A11 was tested for inhibition of additional protein kinases using the Invitrogen SelectScreen Kinase Profiling Service. The Ser/Thr protein kinase, Checkpoint Kinase 2 (CHK2), is an important component in the cellular response to DNA damage. In response to genotoxic stresses such as g-irradiation, which causes double stranded DNA breaks, the Ataxia Telangiectasia Mutated (ATM) protein kinase is activated, which in turn phosphorylates a number of downstream effectors, such as CHK2. Activation of the ATM-CHK2 axis enforces the DNA damage checkpoint response, halting the cell cycle in order to initiate DNA repair.
# To accomplish this, we g-irradiated vehicle- or BI69A11-treated cells and examined ATM and CHK2 phosphorylation, a well-characterized surrogate of activation (FIG. 13). In vehicle-treated cells, g-irradiation led to the robust phosphorylation of ATM and CHK2.
# [2] = molecular target: Akt1 (Homo sapiens, UniProt P31749); test: Akt1 inhibition, Z'-LYTE kit fluorescent-enzymatic assay; assay type: biochemical
# Procedure: Here the top 4000 compounds out of 50000 docked compounds were selected using FlexX and Drugscore (BioSolvIT). The top 4000 docked structures were further evaluated and ranked according to Goldscore and Chemscore functions (CSCORE). A list of common 200 compounds was then selected among ranked top 700 compounds according to both scoring functions (FIG. 1B). […] The remaining 100 compounds were experimentally tested up to 30 μM against Akt1. The inhibitory activity was evaluated for the selected compounds by using Z'-LYTE™ kit assay provided by Invitrogen Corporation (19). […] Corning® 384-well low volume plates (20 μl) were used. The fluorescent-enzymatic assay has been performed following the protocol provided by Invitrogen Corporation, using a fluorescent plate reader (Victor2, Perkin-Elmer). […] C) Lineweaver-Burk Km and Km(app) evaluation for Akt1. Each measurement was performed in triplicate. […] The Ki and the Km(app) were calculated at fixed inhibitor concentrations, as reported in the text. All constant values were definitely evaluated by fitting the data to the Lineweaver-Burk plot; D) Akt1 inhibition assay using GSK-3 as a substrate. Comparison of compounds 1 and 2 (Table 1) with H89 at 10 μM. E) Dose response for compound 1. Akt (10 ng of recombinant enzyme) in 25 μl 1× kinase buffer (25 mM Tris, pH 7.5; 5 mM n-glycerol phosphate; 2 mM dithiothreitol; 0.1 mM Na3VO4; and 10 mM MgCl2), was mixed with 2.5 μl DMSO (1% stock) or MPA-D (100 μM in 1% DMSO). Samples were incubated on ice for 1.5 hours at which time 1 μg of GSK-3 fusion protein (Cell Signaling), which served as the substrate, was added followed by ATP (200 μM) to each reaction mixture. After the suspensions were incubated at 30° C. for 20 min, the reaction was terminated by the addition of 3×SDS sample buffer (187.5 mM Tris-HCl, pH 6.8; 6% SDS; 30% glycerol; 150 mM dithiothreitol; and 0.03% bromophenol blue). The samples were boiled for 5 min, and the proteins were separated on a 12% SDS polyacrylamide gel and subsequently transferred to a nitrocellulose membrane. Membranes were incubated with rabbit polyclonal anti-phospho-GSK-3α/β (Ser21/9) (Cell Signaling).
# For these purposes, we initially determined the Km and the Vmax of the enzymatic reaction involving the peptide provided by the Z'-LYTE™ kit assay and Akt1 by varying the concentration of ATP. The above parameters appeared to be 7.9 μM and 0.0205 μmol min^−1 mg^−1, respectively. […] Because all our inhibitors affected the Km rather than the Vmax of the reaction (FIG. 2C), they can be truly considered ATP-competitive inhibitors of Akt1.
# [3] = system: p53; test: Levels of HSP90 client protein p53; assay type: cell-based; conditions: data not shown
# Description: Among cellular proteins implicated in the regulation of AKT levels is the cellular chaperone HSP90. Inhibition of HSP90 chaperone function, as commonly achieved by the geldanamycin antibiotic, interferes with the conformational maturation and refolding of its associated proteins, thereby promoting their degradation (Munster et al., 2002; Neckers and Neckers, 2003). […] Thus we assessed whether association of AKT with HSP90 could be affected by BI-69A11. Immunoprecipitation of AKT from melanoma cells identified HSP90 in the immunoprecipitated material. Such association was however abolished following treatment with the BI-69A11 inhibitor (FIG. 6C). […] To this end, we also performed the experiment in the presence of the proteasome inhibitor MG132.
# [4] = system: AKT; test: AKT phosphorylation and expression by western blot in PC3 prostate tumor cells; assay type: cell-based; conditions: PC3, 5 and 10 micro.M
# Procedure: (A) MeWo melanoma cells growing in 60 mm plates were treated with the indicated concentration of the inhibitor for 4 h before proteins were prepared for western blot analysis using the indicated antibodies. Level of beta.actin was monitored as a control for protein loading. (B) Experiment was performed as indicated in panel A, except that cells were harvested after 24 h for analysis of cell death using trypan blue staining. (C) Melanoma (MeWo), prostate cancer (PC3) and breast cancer (MCF7) cells were treated with BI-69A11 at the indicated concentrations; levels of AKT phosphorylation or expression were assessed 4 h later. The level of beta.actin used as a control for protein loading. (D) Experiment was performed as indicated in panel C, except that cells were harvested after 4 h for analysis of cell death using trypan blue staining.
# For western blotting techniques, cells were lysed in RIPA buffer containing 50 mM TrisHCl pH7.4, 150 mM NaCl, 2 mM EDTA, 1% NP-40, 0.1% SDS. The protein concentration was estimated using the Coomassie Protein assay kit (Thermo Scientific, Rockford, Ill., USA). Equal concentrations of cell lysate (30-50 ug) were resolved on a 10% polyacrylamide gel and transferred onto Nitrocellulose membrane (GE Amersham). Membranes were blocked for 1-2 hours in either 3% BSA or 5% nonfat dried milk in Tris-buffered saline containing 0.05% Tween 20. […]
# Sequence of Akt1 (P31749 whole entry): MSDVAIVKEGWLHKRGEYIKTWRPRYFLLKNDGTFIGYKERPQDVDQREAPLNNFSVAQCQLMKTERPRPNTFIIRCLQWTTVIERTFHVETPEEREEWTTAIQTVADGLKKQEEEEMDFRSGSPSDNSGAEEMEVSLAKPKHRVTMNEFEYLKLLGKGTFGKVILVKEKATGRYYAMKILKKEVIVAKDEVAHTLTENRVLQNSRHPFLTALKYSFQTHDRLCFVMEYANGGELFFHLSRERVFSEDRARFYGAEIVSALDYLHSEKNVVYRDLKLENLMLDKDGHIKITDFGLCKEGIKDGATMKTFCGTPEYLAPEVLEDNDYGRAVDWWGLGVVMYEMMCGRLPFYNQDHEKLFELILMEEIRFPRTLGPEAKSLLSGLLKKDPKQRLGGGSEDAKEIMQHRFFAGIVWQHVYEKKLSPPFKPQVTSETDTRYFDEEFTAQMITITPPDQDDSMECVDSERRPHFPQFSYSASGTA
# Sequence of CHK2 (O96017 whole entry): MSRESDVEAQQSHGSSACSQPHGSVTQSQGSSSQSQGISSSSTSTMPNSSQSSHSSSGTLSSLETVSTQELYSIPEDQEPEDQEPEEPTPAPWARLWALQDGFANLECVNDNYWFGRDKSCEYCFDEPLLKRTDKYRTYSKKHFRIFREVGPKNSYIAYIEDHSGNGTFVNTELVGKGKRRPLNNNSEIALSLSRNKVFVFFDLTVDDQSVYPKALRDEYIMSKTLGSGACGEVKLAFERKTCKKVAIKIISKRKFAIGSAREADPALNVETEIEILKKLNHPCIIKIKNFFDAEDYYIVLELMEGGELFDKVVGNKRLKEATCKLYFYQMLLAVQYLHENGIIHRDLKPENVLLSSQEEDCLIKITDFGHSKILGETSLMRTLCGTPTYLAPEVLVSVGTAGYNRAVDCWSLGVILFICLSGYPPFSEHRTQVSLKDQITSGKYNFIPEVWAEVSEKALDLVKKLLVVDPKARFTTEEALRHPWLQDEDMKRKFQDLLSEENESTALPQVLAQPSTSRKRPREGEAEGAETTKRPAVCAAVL
compound,measurement,setting,value
"O=C(/C=C/c1nc2ccccc2[nH]1)c1c(O)nc2ccc(Cl)cc2c1-c1ccccc1 [Compound 2, (E)-3-(3-(1H-benzo[d]imidazol-2-yl)acryloyl)-6-chloro-4-phenylquinolin-2(1H)-one]",kinase profiling result for CHK2,[1],possible target
same,IC50 values (in words),[2],low-micromolar range
same,Ki,"[2]; 10 μM compound 1, 20 μM compound 2, 50 μM compound 3, increasing ATP, Lineweaver-Burk",3.9 µM
same,IC50,"[2]; AKT1, Example 2 (Forino et al., 2005), read-out: IC50 values",2.3 µM
same,IC50,"[2]; FIG. 2 legend, read-out: IC50 value",4.5 µM
same,type of inhibition of Akt1,[2]; affected Km rather than Vmax,ATP competitive inhibition
same,level of p53,[3],limited effect
same,AKT protein levels,[4],reduced levels of AKT protein
same,basal level of AKT phosphorylation,[4]; 4 h,effectively inhibited
